# Experimental data reported in patent US9745335B2 (Blirt S.A., priority 2012, dated 2017).
# Legend:
# Human erythrocytes = experiment: hemotoxicity determination (hemolytic activity); type: cell-based
# Outline: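 Human erythrocytes (2×10^7/ml in saline) were incubated with serially diluted compound for 30 min at 37 °C and then centrifuged. Released haemoglobin was read at A540 against a 0.1% Triton X-100 full-lysis control. EH50 is the interpolated concentration giving 50% of the control A540.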
# [1] = system: Candida albicans clinical strain B3; experiment: antifungal activity against MDR fungal strains and parents; type: cell-based; conditions: C. albicans B3, fluconazole sensitive, parent strain for B4
# Procedure: (§1) For the determination of antifungal activity in vitro we used method of serial dilution in buffered medium RPMI 1640, pH 7.0, in a 96-wells microplates, according to the standard procedure (National Committee for Clinical Laboratory Standards. Reference method for broth dilution antifungal susceptibility testing of yeast, approved standard, 2nd ed. M27-A2 vol. 22 Wayne, Pa., 2002). The optical density of cells suspension was measured using a microplates reader (Victor^3, Perkin-Elmer) at the wavelength λ=531 nm (A531). On the basis of obtained results the diagrams of relation between A531 values and concentration of examined compound were made.
# [2] = system: Candida albicans clinical strain F5 (CaMdr1p); experiment: as above; type: cell-based; conditions: C. albicans F5 (CaMdr1p), fluconazole-resistant
# Procedure: as §1
# [3] = system: Candida albicans clinical strain Gu5 (CaCdr1p, CaCdr2p); experiment: as above; type: cell-based; conditions: C. albicans Gu5 (CaCdr1p, CaCdr2p), fluconazole-resistant
# Procedure: as §1
# [4] = system: Candida albicans clinical strain F2; experiment: as above; type: cell-based; conditions: C. albicans F2, fluconazole sensitive, parent strain for F5
# Procedure: as §1
# [5] = system: Candida albicans strain STY7 (CaCdr1p); experiment: as above; type: cell-based; conditions: C. albicans STY7 (CaCdr1p), 5674 derivative, deletion of CDR2
# Procedure: as §1
# [6] = system: Candida albicans clinical strain B4 (CaMdr1p); experiment: as above; type: cell-based; conditions: C. albicans B4 (CaMdr1p), fluconazole-resistant
# Procedure: as §1
# [7] = system: Candida albicans strain STY31; experiment: as above; type: cell-based; conditions: C. albicans STY31, 5674 derivative, deletion of CDR1 and CDR2
# Procedure: as §1
# [8] = system: Candida albicans clinical strain Gu4; experiment: as above; type: cell-based; conditions: C. albicans Gu4, fluconazole sensitive, parent strain for Gu5
# Procedure: as §1
# [9] = system: Candida albicans strain 5674 (CaCdr1p, CaCdr2p); experiment: as above; type: cell-based; conditions: C. albicans 5674 (CaCdr1p, CaCdr2p)
# Procedure: as §1
# [10] = system: Candida glabrata DSM 11226; experiment: antifungal activity in vitro, serial dilution in RPMI 1640; type: cell-based
# Outline: (§2)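 Standard yeast broth dilution (M27-A2) in pH 7.0 buffered RPMI 1640. A531 of cell suspensions recorded and related graphically to compound concentration.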
# [11] = system: Candida albicans ATCC 10231; experiment: as above; type: cell-based
# Outline: as §2
# [12] = system: Saccharomyces cerevisiae ATCC 9763; experiment: as above; type: cell-based; conditions: RPMI 1640, pH 7.0; for Antifungal activity IC50: Saccharomyces cerevisiae ATCC 9763 (first head over MIC and IC50); for Antifungal activity MIC: Saccharomyces cerevisiae ATCC 9763
# Outline: as §2
# [13] = system: Candida tropicalis KKP 334; experiment: as above; type: cell-based
# Outline: as §2
# Candida krusei DSM 6128 = experiment: as above; type: cell-based
# Outline: as §2
# [14] = system: Candida lusitaniae DSM 70102; experiment: as above; type: cell-based
# Outline: as §2
# LLC-PK1 cells = experiment: cytotoxic activity against mammalian cells in tissue culture (MTT); type: cell-based, pig
# Procedure: (§3) All media contained 100 μg/ml of penicillin G and streptomycin. 24-wells microplates containing appropriate medium were inoculated with the cells in amount of 1.2×10^4 cells/well and allowed to stand overnight. Next, tested compounds as solution in dimethylsulfoxide (DMSO) were added in volume of 10 μl (serial 2× dilutions). To control well 10 μl of DMSO was added. Microplates with cell suspensions were incubated for 120 h at temperature 37° C. at atmosphere of 95%/5% CO2. After incubation, to all wells 200 μl of solution of 3-(4,5-dimethyltiazole-2-yl)-2,5-diphenylotetrazole bromide (MTT) in PBS (4 mg/ml) was added and plates were further incubated for 4 h at 37° C. Next, to dissolve crystals of formazane 1 ml of DMSO was added and absorption of solutions was measured at the wavelength λ=540 nm (A540), using a microplates reader (Victor^3, Perkin-Wallac). […] From these graphs IC50 values were read, that is concentration of tested compound in the presence at which A540 value is half of A540 value measured in the control sample.
# [15] = system: Candida pseudotropicalis KKP 324; experiment: antifungal activity in vitro, broader spectrum; type: cell-based
# Procedure: as §1
# (§4) Obtained results are presented below in tables 2A and 2B.
# [16] = system: Candida dubliniensis CBS 7987; experiment: antifungal activity in vitro, broader spectrum; type: cell-based
# Procedure: as §1, §4
# [17] = system: Trichoderma viride LOCK E159; experiment: antifungal activity in vitro, broader spectrum; type: cell-based
# Procedure: as §1, §4
# Candida arborea KKP 319 = experiment: antifungal activity in vitro, broader spectrum; type: cell-based
# Procedure: as §1, §4
# [18] = system: Candida quilliermondii DSM 11947; experiment: antifungal activity in vitro, broader spectrum; type: cell-based
# Procedure: as §1, §4
# [19] = system: Candida lipolytica KKP 322; experiment: antifungal activity in vitro, broader spectrum; type: cell-based
# Procedure: as §1, §4
# Candida albicans SC 5314 = experiment: antifungal activity in vitro, broader spectrum; type: cell-based
# Procedure: as §1, §4
# [20] = system: Aspergillus niger LOCK E201; experiment: antifungal activity in vitro, broader spectrum; type: cell-based
# Procedure: as §1, §4
# [21] = system: Candida stellatoidea CBS 1905; experiment: antifungal activity in vitro, broader spectrum; type: cell-based
# Procedure: as §1, §4
# [22] = system: Candida parapsilosis DSM 5784; experiment: antifungal activity in vitro, broader spectrum; type: cell-based
# Procedure: as §1, §4
# HepG2 cells = experiment: cytotoxic activity against mammalian cells in tissue culture (MTT); type: cell-based, human
# Procedure: as §3
# CCRF-CEM cells = experiment: as above; type: cell-based, human
# Procedure: as §3
Compound,Hemotoxi EH50 (Human erythrocytes),Antifungal activity MIC [1],Antifungal activity MIC [2],Antifungal activity MIC [3],Antifungal activity MIC [4],Antifungal activity MIC [5],Antifungal activity MIC [6],Antifungal activity MIC [7],Antifungal activity MIC [8],Antifungal activity MIC [9],Antifungal activity MIC [10],Antifungal activity MIC [11],Antifungal activity IC50 [12],Antifungal activity MIC [12],Antifungal activity MIC [13],Antifungal activity MIC (Candida krusei DSM 6128),Antifungal activity MIC [14],IC50 (cytotoxic activity) (LLC-PK1 cells),Antifungal activity MIC [15],Antifungal activity MIC [16],also measured
"C[C@@H]1[C@H](O)[C@@H](C)/C=C/C=C/C=C/C=C/C=C/C=C/C=C/[C@H](O[C@@H]2O[C@H](C)[C@@H](O)[C@H](NC(=O)[C@H](N)Cc3cccnc3)[C@@H]2O)C[C@@H]2O[C@](O)(C[C@@H](O)C[C@@H](O)[C@H](O)CC[C@@H](O)C[C@@H](O)CC(=O)O[C@H]1C)C[C@H](O)[C@H]2C(=O)O [Compound A36, N-D-β-(pyridin-3-yl)alanylamphotericin B]",>100 µg/mL,0.5 µg/mL,4 µg/mL,4 µg/mL,4 µg/mL,0.5 µg/mL,4 µg/mL,0.25 µg/mL,1 µg/mL,0.5 µg/mL,4 µg/mL,2 µg/mL,0.53 µg/mL,1 µg/mL,2 µg/mL,4 µg/mL,2 µg/mL,>100 µg/mL,1 µg/mL,1 µg/mL,Antifungal activity MIC [17]: 4 µg/mL; Antifungal activity MIC (Candida arborea KKP 319): 4 µg/mL; Antifungal activity MIC [18]: 1 µg/mL; Antifungal activity MIC [19]: 2 µg/mL; Antifungal activity MIC (Candida albicans SC 5314): 1 µg/mL; Antifungal activity MIC [20]: 0.5 µg/mL; Antifungal activity MIC [21]: 2 µg/mL; Antifungal activity MIC [22]: 2 µg/mL; IC50 (cytotoxic activity) (HepG2 cells): >100 µg/mL; IC50 (cytotoxic activity) (CCRF-CEM cells): >100 µg/mL
"N-(L-N,N-dimethylphenylalanyl)amphotericin B [Compound A43]",>100 µg/mL,0.5 µg/mL,4 µg/mL,2 µg/mL,4 µg/mL,0.5 µg/mL,1 µg/mL,1 µg/mL,1 µg/mL,1 µg/mL,4 µg/mL,4 µg/mL,1.43 µg/mL,4 µg/mL,4 µg/mL,4 µg/mL,2 µg/mL,>100 µg/mL,2 µg/mL,1 µg/mL,Antifungal activity MIC [17]: 4 µg/mL; Antifungal activity MIC (Candida arborea KKP 319): 8 µg/mL; Antifungal activity MIC [18]: 1 µg/mL; Antifungal activity MIC [19]: 1 µg/mL; Antifungal activity MIC (Candida albicans SC 5314): 1 µg/mL; Antifungal activity MIC [20]: 1 µg/mL; Antifungal activity MIC [21]: 1 µg/mL; Antifungal activity MIC [22]: 1 µg/mL; IC50 (cytotoxic activity) (HepG2 cells): >100 µg/mL; IC50 (cytotoxic activity) (CCRF-CEM cells): >100 µg/mL
"C[C@@H]1[C@H](O)[C@@H](C)/C=C/C=C/C=C/C=C/C=C/C=C/C=C/[C@H](O[C@@H]2O[C@H](C)[C@@H](O)[C@H](NC(=O)[C@@H](N)Cc3ccc([N+](=O)[O-])cc3)[C@@H]2O)C[C@@H]2O[C@](O)(C[C@@H](O)C[C@@H](O)[C@H](O)CC[C@@H](O)C[C@@H](O)CC(=O)O[C@H]1C)C[C@H](O)[C@H]2C(=O)O [Compound A33, N-L-p-nitrophenylalanylamphotericin B]",>100 µg/mL,0.5 µg/mL,8 µg/mL,1 µg/mL,4 µg/mL,1 µg/mL,1 µg/mL,0.5 µg/mL,1 µg/mL,2 µg/mL,4 µg/mL,2 µg/mL,1.39 µg/mL,2 µg/mL,4 µg/mL,4 µg/mL,2 µg/mL,>100 µg/mL,1 µg/mL,1 µg/mL,Antifungal activity MIC [17]: 4 µg/mL; Antifungal activity MIC (Candida arborea KKP 319): 2 µg/mL; Antifungal activity MIC [18]: 1 µg/mL; Antifungal activity MIC [19]: 1 µg/mL; Antifungal activity MIC (Candida albicans SC 5314): 1 µg/mL; Antifungal activity MIC [20]: 1 µg/mL; Antifungal activity MIC [21]: 1 µg/mL; Antifungal activity MIC [22]: 1 µg/mL; IC50 (cytotoxic activity) (HepG2 cells): >100 µg/mL; IC50 (cytotoxic activity) (CCRF-CEM cells): >100 µg/mL
